Experimental data from patent publication US12029796B2, “Fluorescent probes for silver ION detection” (THE HONG KONG UNIVERSITY OF SCIENCE AND TECHNOLOGY, priority 2017, dated 2024).
Where two headings read alike, the source gives them in different places.

Legend:
[1] = Fluorescent quantum yield in solid state and in solution; assay type: physicochemical; conditions: solid state
Experimental: (§1) The present compounds are strongly emissive in the solid state with good fluorescent quantum yields. The compounds are weakly emissive or non-emissive when dissolved in aqueous solutions. […] In contrast, when these compounds are dissolved, the solutions only emit faint light (Qy<1%). The compounds dissolve well in alcohols. The compounds can be modestly dissolved (for TPE-4TTZ, up 100 μM in DI-water) in the aqueous phase. Furthermore by the addition of NaOH solutions, the formed salts dissolve well in the aqueous phase (for TPE-4TTZ, up to 1 M in water).

[2] = Fluorescence turn-on sensing and titration of silver ions; conditions: for ratio [Ag^+]:[probe] at which PL intensity is saturated / maximum: probe 5 μM; for LOD (limit of detection) of silver ions / Linear Range of silver ion detection: probe 5 μM in DI-water, excitation 345 nm
Text: The turn-on fluorescence response was instant. The detection of silver ions was highly sensitive and sharp intensity changes could be detected with the naked eye. DLS (Dynamic light scattering) measurement confirmed the formation of nanoparticles. […] This is likely due to the reduction of silver-tetrazole complexes by the strong electron-beam during TEM studies. These emissive silver-compound solid complexes are hardly soluble in a range of solvents, including DMSO, methanol, and water. NMR analysis of these complexes is not possible. The complexes are also resistant to acid/base treatment, or heating by a heat-gun.
In fluorescence spectroscopy, solutions containing silver ions behaved quite differently from solutions without silver ions in terms of intensity, with the ratio of intensity at maximum peak at 504 nm exceeding 400 times (FIGS. 3A-3D). […] By plotting the intensity of maximum intensive peaks against the ratio of ion concentrations, it was expected that the working curve for the quantitative detection of silver ions could be established. […] Meanwhile, the detection limit (LOD) of silver ions is estimated to be 40 nM (S/N=3 and n=11). With a further increase of [Ag^+], the intensity reaches a plateau.
Tetrazole-tagged AIE luminogen TPE-4TTZ (5 μM) undergoes a fluorescence turn-on response towards a solution of silver ions. The solutions can include organic solutions, aqueous solutions including natural water, wastes and/or biological buffer solutions. PL spectra were recorded on a Perkin-Elmer LS 55 spectrofluorometer.
The solutions included organic solutions, aqueous solutions including natural water, wastes and/or biological buffer solutions. For the same probes, the calibration curve varied a little in different solutions. UV spectra were measured on a Biochrom Libra S80PC double beams spectrometer. PL spectra were recorded on a Perkin-Elmer LS 55 spectrofluorometer.

[3] = pH dependence of Ag^+ induced fluorescence in phosphate buffer; conditions: phosphate buffer solutions
Text: (§2) The Ag^+/Hg^2+ coordination-induced fluorescence can be pH-sensitive. For example, with respect to TPE-4TTZ, a series of tests were done in phosphate buffer solutions at different pH varying from 4 to 12. At pH lower than 4, the tetrazole moiety (pKa˜4-5) was largely in the protonated form and sparingly soluble in solution and, thus, aggregated. The aggregation elicited fluorescence with a different color from that of the silver complexes. Therefore, the turn-on detection is only possible in solutions with pH>4. When pH is from 5˜6, PL response is significant enough for a high resolution detection of silver ions. […] Furthermore regarding the mercury detection, the FL response was significant only at the pH window (4˜7); when pH>8, the fluorescence turn-on was not observed anymore. Thus, TPE-4TTZ is only sensitive to silver ions in basic solutions. Similar observations were made for the other tetrazole-tagged TPEs.

[4] = Interference of silver-binding reagents with silver sensing; conditions: TPE-4TTZ 5 μM, anions 100 equiv.
Experimental: Detection can be based on selective coordination involving electrostatic interactions. Tests were conducted to determine whether silver binding moieties (e.g., anions) might be another kind of interfering factor in the mixture. […] After a short while of shaking, the probe (10 eq.) was added. Each solution was gently mixed and then checked in a PL machine. Compared with the control group, the interfering reagents including amino acids and DNA/RNA bases were only weakly interfering with the silver-tetrazole sensing process. In other words, the tetrazole anions can snatch silver ions from these ligands and elicit a fluorescence turn-on. There were exceptions, in particular for strong silver-interacting structures. Cysteine, the sulfur-containing amino acid, blocked sensing by the strong S—Ag interaction. Similar results were seen from SCN^− and S2O3^2-, due to their stronger binding affinity towards Ag^+ than the tetrazole anion (CN4^−). In addition, ammonium solution blocked sensing by reducing Ag^+ into metallic silver.
With reference to FIG. […] PL spectra were recorded on a Perkin-Elmer LS 55 spectrofluorometer. […] In each example, the silver-binding molecule was added prior to the addition of the probes from a stock solution. The stock solution of the probe is 1 mM in ethanol. PL spectra were recorded on a Perkin-Elmer LS 55 spectrofluorometer.

[5] = cited from earlier work
[6] = Solubility in the aqueous phase; assay type: physicochemical
Experimental: as §1

[7] = Selectivity: fluorescence response to other metal ions
Experimental: (§3) As selectivity is an important parameter for sensing technique, responses of these probes to other metal ions were examined. […] Mercury is reported to coordinate with the tetrazole group.
(§4) With reference to FIG. 7, tetrazole-tagged AIE luminogen TPE-4TTZ (10 μM) underwent a fluorescence turn-on response towards a solution of silver ions in the presence of other metal ions in phosphate aqueous solution (10 mM, pH 7.4). PL spectra were recorded on a Perkin-Elmer LS 55 spectrofluorometer. Tetrazole-tagged AIE luminogen TPE-4TTZ (10 μM) underwent a fluorescence turn-on response towards a solution of silver ions in the presence of other silver-binding molecules in phosphate aqueous solution (10 mM, pH 7.4). In each example, the silver-binding molecule was added prior to the addition of the probes from a stock solution. The stock solution of the probe is 1 mM in ethanol. PL spectra were recorded on a Perkin-Elmer LS 55 spectrofluorometer.

[8] = Selectivity: fluorescence response to mercury ions
Text: as §3
as §2, with “pH>4.” for “pH>4. When pH is from 5˜6, PL response is significant enough for a high resolution detection of silver ions.”, “Thus, TPE-4TTZ is only sensitive to silver ions in basic solutions. Similar observations were made for the other tetrazole-tagged TPEs.” left out
as §4, with “In each example, the silver-binding molecule was added prior to the addition of the probes from a stock solution. The stock solution of the probe is 1 mM in ethanol. PL spectra were recorded on a Perkin-Elmer LS 55 spectrofluorometer.” left out

[9] = phosphate aqueous solution 10 mM, pH 7.4

fluorescent quantum yield (Qy) [1]	fluorescence on mixing with different anions without Ag^+ [4]	solubility ([6]; deionised water, DI-water, read-out: solubility in the aqueous phase)	solubility ([6]; water with added NaOH solution, aqueous buffer, water, after addition of NaOH solution, read-out: solubility of the formed salt in the aqueous phase)	SMILES	ratio [Ag^+]:[probe] at which PL intensity is saturated / maximum [2]	LOD (limit of detection) of silver ions [2]	Linear Range of silver ion detection [2]	pH at which maximum PL response to silver is relatively stable [3]	pH at which turn-on detection of silver is possible ([3]; pH 4 to 12)	pKa of tetrazole moiety [5]	PL response to Mg^2+, Mn^2+, Zn^2+, Al^3+ etc. [7, 9]	effect of Fe^2+, Fe^3+, Co^2+ and Cu^2+ on fluorescence ([7]; same conditions)	PL response to mercury ions [8, 9]	pH window with significant FL response to mercury ([8]; phosphate buffer solutions, pH 4 to 12)	fluorescence response on addition of silver ions ([2]; TPE-4TTZ 5 μM, silver ions 500 μM, UV 350 nm)
36.2%				c1ccc(C(=C(c2ccc(-c3nnn[nH]3)cc2)c2ccc(-c3nnn[nH]3)cc2)c2ccccc2)cc1 [TPE-2TTZ]	2.6	3.0 nM	0.2~10 μM								
39.6%				c1ccc(C(=C(c2ccccc2)c2ccc(-c3nnn[nH]3)cc2)c2ccccc2)cc1 [TPE-1TTZ]	0.6	1.5 nM	0.1~3 μM								
76.8%	did not generate strong fluorescence	≤ 0.1 mM	≤ 1000 mM	c1cc(-c2nnn[nH]2)ccc1C(=C(c1ccc(-c2nnn[nH]2)cc1)c1ccc(-c2nnn[nH]2)cc1)c1ccc(-c2nnn[nH]2)cc1 [TPE-4TTZ]	~4	2.3 nM	0.04~15 μM	> 6	> 4	4-5	hardly increased the PL intensity	quench the weak fluorescence	significant enhancement of PL intensity	4˜7	highly emissive
